# According to patent US20220133842A1 (priority 2019, published 2022):
# Like-named read-outs stand apart in the source and are kept apart here.
# Assays:
# [1] = system: Clostridium perfringens (ATCC 13124); format: cell-based
# T84 cells (ATCC CCL-248) = assay: cells; format: cell-based, human; conditions: read-out: IC50 (concentration causing 50% cell death)
# [2] = system: Candida albicans (DSM 10697); format: cell-based
# [3] = system: Enterococcus faecalis (DSM 13591); assay: microbe, parasite or virus in culture; format: cell-based
# [4] = system: Pseudomonas aeruginosa (CIP 107398); format: cell-based
# [5] = system: human (Caco-2 and T84) and pig (IPEC-J2) intestinal cells
# [6] = system: Bacillus subtilis (DSM 347); format: cell-based
# [7] = system: Escherichia coli (ATCC 8739); format: cell-based
# [8] = system: Staphylococcus aureus (ATCC 6538P); format: cell-based
# [9] = system: Clostridium perfringens (ATCC 13124)
# [10] = system: Caco-2 cells (ATCC HTB-37); assay: cells; format: cell-based, human; conditions: read-out: IC50 (concentration causing 50% cell death)
# IPEC-J2 cells [11] = assay: cells; format: cell-based, pig; conditions: read-out: IC50 (concentration causing 50% cell death)
# [12] = system: Clostridium botulinum (DSM 1985); assay: microbe, parasite or virus in culture; format: cell-based
# [13] = system: Clostridium propionicum (DSM 6251); assay: microbe, parasite or virus in culture; format: cell-based
# [14] = system: Streptococcus pyogenes (DSM 20565); assay: microbe, parasite or virus in culture; format: cell-based
# [15] = system: Propionibacterium acnes (ATCC 6919); assay: microbe, parasite or virus in culture; format: cell-based
# [16] = system: Clostridium coccoides (DSM 935); assay: microbe, parasite or virus in culture; format: cell-based
# [17] = system: Bacteroides thetaioataomicron (DSM 2255); assay: microbe, parasite or virus in culture; format: cell-based
# [18] = system: human or porcine intestinal cells grown on inserts; conditions: human, pig
# Caco-2 cells = conditions: human
# T84 cells = conditions: human
# [19] = system: Streptococcus thermophilus (ATCC LMD-9); assay: microbe, parasite or virus in culture; format: cell-based
# [20] = system: Clostridium difficile (DSM 1296); assay: microbe, parasite or virus in culture; format: cell-based
# [21] = system: Clostridium nexile (DSM 1787); assay: microbe, parasite or virus in culture; format: cell-based
# [22] = system: Lactobacillus acidophilus (DSM 20079); assay: microbe, parasite or virus in culture; format: cell-based
# [23] = system: Clostridium perfringens (ATCC13124); format: cell-based
# IPEC-J2 cells [24] = conditions: pig
# [25] = system: Helicobacter pylori (ATCC 43504); assay: microbe, parasite or virus in culture; format: cell-based
# [26] = system: Listeria monocytogenes (DSM 20600); format: cell-based
# [27] = system: Micrococcus luteus (DSM 20030); format: cell-based
# [28] = system: Citrobacter farmeri (ATCC 51633); format: cell-based
# [29] = system: Staphylococcus aureus MRSA USA300 (ATCC BAA-1717); format: cell-based
# [30] = system: Salmonella enterica (CIP 80.39); format: cell-based
# [31] = system: Fusarium graminearum (DSM 1095); format: cell-based
# [32] = system: Penicillium verrucosum (DSM 12639); format: cell-based
# [33] = system: Lactococcus lactis (DSM 20481); format: cell-based
# [34] = system: Arthrobacter gandavensis (DSM 2447); format: cell-based
# [35] = system: Aspergillus flavus (DSM 1959); format: cell-based
# [36] = system: Mycobacterium smegmatis (ATCC 700084); format: cell-based
# [37] = system: Fusarium verticillioides (DSM 62264); format: cell-based
# [38] = system: Klebsiella pneumoniae (DSMZ 26371); format: cell-based
# [39] = system: Klebsiella variicola (DSM 15968); format: cell-based
# [40] = system: Aspergillus ochraceus (DSM 824); format: cell-based
# [41] = system: Aspergillus niger (ATCC 9142); format: cell-based
# [42] = system: Shigella flexneri (ATCC 12022); format: cell-based
# Bacillus cereus (DSM 31) = format: cell-based
# [43] = system: Citrobacter rodentium (ATCC 51116); format: cell-based
# [44] = system: Acinetobacter baumannii (CIP 110431); format: cell-based
# [45] = system: Fusarium oxysporum (DSM 62316); format: cell-based
# [46] = system: Clostridium perfringens strain (ATCC 13124) and clinical strains of Clostridium perfringens; format: cell-based
# [47] = system: Clostridium perfringens (ATCC 13124); format: cell-based; remark: listed apart in the source
compound,measurement,setting,value
O=C(N[C@H](CO)[C@H](O)c1ccc([N+](=O)[O-])cc1)C(Cl)Cl [Chloramphenicol],morphological phenotype (mechanism of action),"[1]; 5 times MIC, 2 hours, FM4-64FX and DAPI labelling",hypercondensation of bacterial DNA
Enniatin A1,IC50,T84 cells (ATCC CCL-248),4.5 µM
same,MIC,[2],3.125 µM
same,MIC,[3],6.25 µM
same,MIC,[4],>100 µM
same,toxicity to intestinal cells,[5],toxic
same,MIC,[6],25 µM
same,MIC,[7],>100 µM
same,MIC,[8],25 µM
same,MIC,[9],6.25 µM
same,MIC (mg/L),[9],4.16 mg/L
same,IC50,[10],3.1 µM
same,IC50,IPEC-J2 cells [11],5.1 µM
CCCCCCCCCC(=O)N[C@@H](Cc1c[nH]c2ccccc12)C(=O)N[C@H](CC(N)=O)C(=O)N[C@@H](CC(=O)O)C(=O)N[C@@H]1C(=O)NCC(=O)N[C@@H](CCCN)C(=O)N[C@@H](CC(=O)O)C(=O)N[C@H](C)C(=O)N[C@@H](CC(=O)O)C(=O)NCC(=O)N[C@H](CO)C(=O)N[C@@H]([C@H](C)CC(=O)O)C(=O)N[C@@H](CC(=O)c2ccccc2N)C(=O)O[C@@H]1C [Daptomycin],MIC,[9]; ATCC 13124,8 µM
same,MIC (mg/L),[9]; ATCC 13124,12.96 mg/L
Cc1ncc([N+](=O)[O-])n1CCO [Metronidazole],MIC,"[12]; Clostridium botulinum, DSM1985",0.29 µM
same,MIC,"[13]; Anaerotignum propionicum, DSM6251",1.17 µM
same,MIC,"[14]; Streptococcus pyogenes, DSM20565",> 1500 µM
same,MIC,"[15]; Cutibacterium acnes, ATCC6919",1500 µM
same,MIC,"[16]; Blautia producta, DSM935",0.29 µM
same,IC50,"T84 cells (ATCC CCL-248); Homo sapiens, T84, 48 h",> 1500 µM
same,MIC,"[3]; Enterococcus faecalis, DSM13591",> 1500 µM
same,toxicity to intestinal cells,[5],not toxic
same,MIC,"[17]; Bacteroides, DSM2255",2.34 µM
same,decrease in transepithelial electrical resistance,[18],0-34%
same,transepithelial electrical resistance,Caco-2 cells,252 +/− 13.7 ohm.cm2
same,transepithelial electrical resistance,T84 cells,293 +/− 12.3 ohm.cm2
same,MIC,[19]; Streptococcus thermophilus,1500 µM
same,MIC,"[20]; Clostridioides difficile, DSM1296",1.17 µM
same,MIC,"[21]; Faecalimonas nexilis, DSM1787",2.34 µM
same,MIC,"[22]; Lactobacillus acidophilus, DSM20079",> 1500 µM
same,MIC (mg/L),"[9]; Clostridium perfringens, ATCC13124",1.60 mg/L
same,IC50,"[10]; Homo sapiens, Caco-2, 48 h",> 1500 µM
same,increase in MIC,[23]; after 7 days of contact,10 fold
same,increase in MIC,[23]; after 9 days of contact,50-100 fold
same,transepithelial electrical resistance,IPEC-J2 cells [24],875 +/− 203 ohm.cm2
same,MIC,"[25]; Helicobacter pylori, ATCC 21031 / ATCC 43504",> 1500 µM
same,IC50,"IPEC-J2 cells [11]; Sus scrofa, IPEC-J2, 48 h",> 1500 µM
Bafilomycin B1,MIC,[26],50 µM
same,MIC,[27],25 µM
same,MIC,[12],30 µM
same,MIC,[13],25 µM
same,MIC,[14],20 µM
same,MIC,[15],60 µM
same,MIC,[16],30 µM
same,MIC,[28],>100 µM
same,MIC,[2],100 µM
same,MIC,[3],40 µM
same,MIC,[29],20 µM
same,MIC,[30],>100 µM
same,MIC,[31],25 µM
same,MIC,[32],6.25 µM
same,MIC,[4],>100 µM
same,MIC,[6],20 µM
same,MIC,[17],>100 µM
same,MIC,[33],50 µM
same,MIC,[34],3 µM
same,MIC,[35],3.25 µM
same,MIC,[36],>100 µM
same,MIC,[37],50 µM
same,MIC,[38],>100 µM
same,MIC,[39],>100 µM
same,MIC,[7],>100 µM
same,MIC,[40],6.25 µM
same,MIC,[19],30 µM
same,MIC,[41],100 µM
same,MIC,[20],>100 µM
same,MIC,[8],10 µM
same,MIC,[21],60 µM
same,MIC,[42],>100 µM
same,MIC,[22],10 µM
same,MIC,Bacillus cereus (DSM 31),25 µM
same,MIC,[43],>100 µM
same,MIC,[44],>100 µM
same,MIC,[9],10 µM
same,MIC (mg/L),[9],8.15 mg/L
same,MIC,[25],>100 µM
same,MIC,[45],50 µM
Destruxin A,MIC,[26],>100 µM
same,MIC,[27],>100 µM
same,MIC,[12],>100 µM
same,MIC,[13],>100 µM
same,MIC,[14],>100 µM
same,MIC,[15],>100 µM
same,MIC,[16],>100 µM
same,MIC,[28],>100 µM
same,IC50,T84 cells (ATCC CCL-248),> 100 µM
same,MIC,[2],>100 µM
same,MIC,[3],>100 µM
same,minimum bactericidal concentrations (BMC values),[46],identical to the MIC values
same,MIC,[29],>100 µM
same,MIC,[30],>100 µM
same,MIC,[31],>100 µM
same,morphological phenotype (mechanism of action),[1],hypercondensation of bacterial DNA
same,MIC,[32],>100 µM
same,MIC,[4],>100 µM
same,toxicity to intestinal cells,[5],not toxic
same,MIC,[6],>100 µM
same,MIC,[17],>100 µM
same,MIC,[33],>100 µM
same,MIC,[34],>100 µM
same,permeabilisation of the bacterial membrane,[47],no permeabilisation
same,MIC,[35],>100 µM
same,MIC,[36],>100 µM
same,MIC,[37],>100 µM
same,MIC,[38],>100 µM
same,MIC,[39],>100 µM
same,MIC,[7],>100 µM
same,MIC,[40],>100 µM
same,MIC,[19],>100 µM
same,MIC,[41],>100 µM
same,MIC,[20],>100 µM
same,MIC,[8],>100 µM
same,MIC,[21],>100 µM
same,MIC,[42],>100 µM
same,MIC,[22],>100 µM
same,MIC,Bacillus cereus (DSM 31),>100 µM
same,MIC,[43],>100 µM
same,MIC,[44],>100 µM
same,MIC (mg/L),[9],0.86 mg/L
same,IC50,[10],> 100 µM
same,change of MIC during exposure,[23],do not change or change only slightly
same,MIC,[25],>100 µM
same,MIC,[45],>100 µM
same,IC50,IPEC-J2 cells [11],> 100 µM
